Read-outs that look alike come from different tables or passages of the source.
Columns and labels:
[1] = test system: LRV1 (LgyLRV1 capsid levels); assay: organism not typed; conditions: for Effect on LRV1 (capsid) levels, in words: screen at 100 μM or maximum concentration permitted by solubility
Excerpt: Because LRV1 (like most Totiviridae) is not shed from the cell (33, 34), we developed a flow cytometric assay to measure intracellular LRV1 capsid levels on a per cell basis. To detect LRV1 we used binding to a rabbit anti-LgyLRV1 capsid antiserum (35) followed by detection with Alexa Fluor488-conjugated goat anti-rabbit IgG.
(§1) Parasites were inoculated at 2×10^5 cells/mL into Schneider's media lacking supplemental adenine.
For capsid flow cytometry, 10^7 cells were fixed at room temperature using 2% (wt/vol) paraformaldehyde (Thermo Fisher Scientific) in PBS for 2 minutes. They were then incubated in blocking buffer [10% (vol/vol) normal goat serum (Vector Laboratories, Burlingame, Calif., USA) and 0.2% TRITON X-100 in PBS] for 30 minutes at room temperature. Anti-LgyLRV1 capsid antibody (35) was added (1:20,000 dilution) and incubated at room temperature for 1 hour. After two washes with PBS, cells were resuspended in 200 μL PBS with Alexa Fluor488-labeled goat anti-rabbit IgG (Alexafluor, Invitrogen; 1:1,000; or Thermo Fisher Scientific; 1:2,000 dilution), and incubated 1 hour at room temperature. After two additional washes with PBS, cells were subjected to flow cytometry, gating for single cells using forward and side scatter and the data analyzed using […] software (BD Bioscience, San Jose, Calif., USA).

[2] = test system: L. guyanensis (LgyLRV1+); assay: Drug-inhibition test: growth of LgyLRV1+ parasites; type: cell-based, Leishmania guyanensis; conditions: for Population doubling time: untreated ˜7.7 hours
Protocol: These compounds were examined for their ability to inhibit the growth of LgyLRV1^+ and virus levels by LRV1 capsid flow cytometry.
Most studies were performed using luciferase-expressing transfectants of L. guyanensis (MHOM/BR/78/M4147) described previously [LRV1^+ LgyM4147/SSU:IR2SAT-LUC(b)c3 and LRV^−LgyM4147/pX63HYG/SSU:IR2SAT-LUC(b)c4] (54); these lines are termed LgyLRV1^+ and LgyLRV1^−, respectively. Two strains of LRV1^+L. braziliensis were examined: LEM2780 (MHOM/BO/90/CS) and LEM3874 (MHOM/BO/99/IMT252 no. 3) (12). Parasites were grown in Schneider's media (Sigma Aldrich, St. Louis, Mo., USA) prepared according to the supplier's instructions with pH adjusted to 6.5 and supplemented with 0.76 mM hemin, 2 μg/mL biopterin, 50 U/mL penicillin, 50 μg/mL streptomycin, and 10% (vol/vol) heat-inactivated FBS. Cell concentrations were determined using a Coulter Counter ([…], Indianapolis, Ind., USA).
as §1

[3] = LgyLRV1+, tested at 100 μM, 2 days
[4] = LgyLRV1+, tested at 100 μM, growth after 2 days
[5] = 48 h, read-out: Percent control (LRV1 capsid)
[6] = Leishmania guyanensis, 48 h, LgyLRV1+, tested at 100 μM, growth after 2 days, read-out: Percent control (density)
[7] = LgyLRV1+, tested at 50 μM, growth after 2 days

Row | Molecule | LRV1 capsid (geometric mean FU) [1, 3] [FU] | Density (cells/mL) [2, 4] [cells/mL] | activity at 100 µM [1, 5] [%] | activity at 100 µM [2, 6] [%] | further results
1 | 3′-Azido-3′-hydroxyethyl cyclobutyl adenine [Compound E9] | 279 | 1.58E+7 | – | – | Percent control (LRV1 capsid) [1, 3]: 105 Percent control; Percent control (density) [2, 4]: 94 Percent control
2 | O=c1cn[nH]c(=O)[nH]1 [Compound 6-Azauracil, 6-Azauracil] | – | 1.20E+7 | 102 | 71 | LRV1 capsid (geometric mean FU) [1]: 271 FU
3 | CN(C)c1ncnc2c1ncn2[C@@H]1O[C@H](CO)[C@@H](O)[C@H]1O [Chembridge 5790592, N,N-dimethyl adenosine] | – | 1.00E+5 | 108 | 1 | LRV1 capsid (geometric mean FU) [1]: 287 FU
4 | COc1c(C)c2c(c(O)c1C/C=C(\C)CCC(=O)O)C(=O)OC2 [Mycophenolic acid] | – | – | – | – | activity at 1 µM [1, 5]: 90%; LRV1 capsid (geometric mean FU) ([1]; LgyLRV1+, tested at 1 μM, 2 days): 238 FU; activity at 1 µM ([2]; Leishmania guyanensis, 48 h, LgyLRV1+, tested at 1 μM, growth after 2 days, read-out: Percent control (density)): 3%; Density (cells/mL) ([2]; LgyLRV1+, tested at 1 μM, growth after 2 days): 4.55E+5 cells/mL
5 | Cc1cn([C@H]2C[C@H](N=[N+]=[N-])[C@@H](CO)O2)c(=O)[nH]c1=O [Zidovudine] | 196 | 1.81E+7 | 74 | – | activity at 100 µM ([2]; Leishmania guyanensis, 48 h, read-out: Percent control (density)): 107%
6 | C[C@H](Cn1cnc2c(N)ncnc21)OCP(=O)(O)O.O [Tenofovir, Tenofovir monohydrate] | 206 | 8.90E+6 | – | – | Percent control (LRV1 capsid) [1, 3]: 78 Percent control; Percent control (density) [2, 4]: 53 Percent control
7 | CC(C)OC(=O)[C@H](C)N[P@](=O)(OC[C@H]1O[C@@H](n2ccc(=O)[nH]c2=O)[C@](C)(F)[C@@H]1O)Oc1ccccc1 [PSI-7977, 2-((5-(2,4-dioxo-3,4-dihydro-2H-pyrimidin-1-yl)-4-fluoro-3-hydroxy-4-methyltetrahydrofuranyl-2-methoxy)phenoxyphosphorylamino) propionic acid isopropyl ester] | 163 | 1.25E+7 | 61 | 74 | Effect on LRV1 (capsid) levels, in words ([1]; 2 days): little effect on LRV1
8 | 3′-Azido-3′-hydroxyethyl cyclobutyl adenine [Compound E8] | 277 | 1.86E+7 | – | – | Percent control (LRV1 capsid) [1, 3]: 104 Percent control; Percent control (density) [2, 4]: 111 Percent control
9 | O=c1ccn([C@@H]2O[C@H](CO)[C@@H](O)[C@H]2F)c(=O)[nH]1 [2′-fluoro-2′-deoxyuridine, 2′-Fluoro-2′-deoxyuridine] | 234 | 2.22E+7 | 88 | 132 | –
10 | Nc1nc2c(ncn2COCCO)c(=O)[nH]1 [Acyclovir] | – | – | – | – | activity at 120 µM [1, 5]: 259%; activity at 120 µM ([2]; Leishmania guyanensis, 48 h, LgyLRV1+, tested at 120 μM, growth after 2 days, read-out: Percent control (density)): 51%; Density (cells/mL) ([2]; LgyLRV1+, tested at 120 μM, growth after 2 days): 8.55E+6 cells/mL
11 | Nc1nc2nn[nH]c2c(=O)[nH]1 [Compound 8-Azaguanine, 8-Azaguanine] | – | 5.68E+6 | 100 | 34 | LRV1 capsid (geometric mean FU) [1]: 264 FU
12 | OC[C@H]1O[C@@H](n2cnc3c(O)ncnc32)[C@H](F)[C@@H]1O [2′-Fluoro-2′-deoxyinosine] | 255 | 2.41E+7 | 96 | 143 | –
13 | CC(C)C[C@H](NC(=O)[C@H]1O[C@@H]1C(=O)O)C(=O)NCCCCN=C(N)N [e64, E-64] | – | – | – | – | LRV1 capsid (geometric mean FU) [1]: 153 FU; Percent control (LRV1 capsid) ([1]; LgyLRV1+, tested at 50 μM, 2 days): 58 Percent control; Effect on LRV1 (capsid) levels, in words ([1]; 2 days): only minimal effects; Density (cells/mL) [2, 7]: 1.80E+07 cells/mL; Percent control (density) [2, 7]: 107 Percent control; Effect on L. guyanensis growth, in words ([2]; screen at 100 μM or maximum concentration permitted by solubility, 2 days): no effects
14 | O=C(O)P(=O)(O)O [Foscarnet, Phosphonoformic acid] | 162 | 9.50E+6 | 61 | 56 | Effect on LRV1 (capsid) levels, in words ([1]; 2 days): not significantly affected
15 | C[C@@H]1C[C@@H]([C@H](O)CC2CC(=O)NC(=O)C2)C(=O)[C@@H](C)C1 [CHX, cycloheximide] | – | – | – | – | LRV1 capsid levels under growth-inhibiting agent, in words ([1]; LgyLRV1+, 48-hour propagation in increasing concentrations): unaffected; Population doubling time ([2]; L. guyanensis at 10 nM): 11.2 h; Population doubling time ([2]; L. guyanensis at 100 nM): 44.7 h
16 | Nc1nc2c(ncn2[C@@H]2O[C@H](CO)[C@@H](O)[C@H]2F)c(=O)[nH]1 [2′-fluoro-2′-deoxyguanosine, 2′-Fluoro-2′-deoxyguanosine] | 326 | 1.68E+7 | 123 | 100 | –
17 | C=C1[C@H](CO)[C@@H](O)C[C@@H]1n1cnc2c(=O)[nH]c(N)nc21 [Entecavir] | 119 | 1.77E+7 | 45 | 105 | –
18 | Cc1cn([C@H]2C=C[C@@H](CO)O2)c(=O)[nH]c1=O [Stavudine] | 220 | 1.60E+7 | 83 | 95 | –
19 | NC(=O)c1ncn([C@@H]2O[C@H](CO)[C@@H](O)[C@H]2O)n1 [Ribavirin] | 162 | 2.21E+6 | 61 | 13 | –
20 | O=c1[nH]cc(F)c(=O)[nH]1 [5-Fluorouracil] | – | 9.05E+5 | 193 | 5 | LRV1 capsid (geometric mean FU) [1]: 512 FU

— patent US20190307783A1, “USE OF ANTIVIRALS TO INHIBIT PROTOZOAN VIRUSES” (priority 2016, published 2019)
